Laboratory results as given in US4045563A, “Substituted 2-[pyridylalkylenesulfinyl]-benzimidazoles with gastric acid secretion inhibiting effects” (AB Hassle, priority 1975, dated 1977).

Test system: gastric acid secretion
Assay: Inhibition of pentagastrin-induced gastric acid secretion in anesthetized dogs (modified perfusion technique, intraduodenal test compound)
Format: in vivo
Conditions: 1 mg per kg body weight, dog, pentagastrin-stimulated
Method: To test the gastric acid secretion activity, a modified perfusion technique was performed using dogs as test animals. An anesthetized dog was fitted with one tube going through the esophagus to the stomach for instillation of fluid, and a second tube extending through the duodenum by way of the ligated pylorus for fluid drainage. Every 15 minutes, 5 ml/kg body weight of a saline solution was introduced into the test animal, and drained samples collected and titrated to pH 7.0 with 0.04N NaOH using a radiometer automatic titrator to calculate the acid output.
Gastric acid secretion was induced by pentagastrin by administering 1-2 μg/kg per hour, giving a submaximal secretory response. Test compounds in a 0.5% Methocel (methyl cellulose) suspension were introduced into the duodenum close to the ligation at least two hours following onset of stimulation, when the secretion had reached a steady level for three consecutive 15 minute periods.
The following gastric acid inhibiting effect data were obtained for a number of compounds tested according to the method described.

SMILES | inhibited gastric acid secretion
[O-][S+](Cc1ccccn1)c1nc2ccccc2[nH]1 (stereo not shown) [Example 1, 2-[2-pyridylmethylsulfinyl]-benzimidazole] | 90%

Same assay, conditions: Canis lupus familiaris, dose 1 mg/kg, dog, pentagastrin-stimulated

SMILES | inhibition in vivo at 1 mg/kg
CC(c1ccccn1)[S+]([O-])c1nc2ccccc2[nH]1 (stereo not shown) [Example 16] | 37%
Cc1ccc2[nH]c([S+]([O-])Cc3ccccn3)nc2c1 (stereo not shown) [Example 21] | 50%

Same assay, conditions: Canis lupus familiaris, dose 2 mg/kg, dog, pentagastrin-stimulated

SMILES | inhibition in vivo at 2 mg/kg
CCC(c1ccccn1)[S+]([O-])c1nc2ccccc2[nH]1 (stereo not shown) [Example 28] | 65%

Same assay, conditions: Canis lupus familiaris, dose 5 mg/kg, dog, pentagastrin-stimulated

SMILES | inhibition in vivo at 5 mg/kg
Cc1cc(C)c2nc([S+]([O-])Cc3ccccn3)[nH]c2c1 (stereo not shown) [Example 2] | 94%
CCc1ccc2[nH]c([S+]([O-])Cc3ccccn3)nc2c1 (stereo not shown) [Example 3] | 50%
CCOC(=O)c1ccc2[nH]c([S+]([O-])Cc3ccccn3)nc2c1 (stereo not shown) [Example 9] | 8%
CC(c1ccccn1)[S+]([O-])c1nc2ccccc2[nH]1 (stereo not shown) [Example 16] | 96%
Cc1ccc2[nH]c([S+]([O-])Cc3ccccn3)nc2c1 (stereo not shown) [Example 21] | 95%
[O-][S+](Cc1ccccn1)c1nc2cc(Cl)ccc2[nH]1 (stereo not shown) [Example 22] | 35%
CCCc1ccc2[nH]c([S+]([O-])Cc3ccccn3)nc2c1 (stereo not shown) [Example 25] | 15%
Cc1ccc(C[S+]([O-])c2nc3cc(C)ccc3[nH]2)nc1 (stereo not shown) [Example 26] | > 75%
CCC(c1ccccn1)[S+]([O-])c1nc2ccccc2[nH]1 (stereo not shown) [Example 28] | 80%
CCc1ccc2[nH]c([S+]([O-])C(C)c3ccccn3)nc2c1 (stereo not shown) [Example 30] | 60%
Cc1ccnc(C[S+]([O-])c2nc3cc(C)ccc3[nH]2)c1 (stereo not shown) [Example 42] | > 75%
Cc1cccnc1C[S+]([O-])c1nc2ccccc2[nH]1 (stereo not shown) [Example 43] | > 75%
CCc1ccc(C[S+]([O-])c2nc3cc(C)ccc3[nH]2)nc1 (stereo not shown) [Example 44] | 95%
CCc1ccc(C[S+]([O-])c2nc3ccccc3[nH]2)nc1 (stereo not shown) [Example 45] | 90%
[O-][S+](Cc1ccccn1)c1nc2c(Cl)cccc2[nH]1 (stereo not shown) [Example 53] | 30%
Cc1cc2nc([S+]([O-])C(C)c3ccccn3)[nH]c2cc1C (stereo not shown) [Example 55] | 30%

Same assay, conditions: Canis lupus familiaris, dose 10 mg/kg, dog, pentagastrin-stimulated

SMILES | inhibition in vivo at 10 mg/kg
Cc1cc(Cl)cc2[nH]c([S+]([O-])Cc3ccccn3)nc12 (stereo not shown) [Example 4] | 41%
CC(C)c1ccc2[nH]c([S+]([O-])Cc3ccccn3)nc2c1 (stereo not shown) [Example 23] | 80%
